Experimental findings from US9120791B2, “Indolizine compounds, a process for their preparation and pharmaceutical compositions containing them” (LES LABORATOIRES SERVIER, priority 2012, dated 2015) are described below.

In assay [1] the test system is RS4;11 leukaemia tumour line. The experiment in a line: In vitro cytotoxicity (Microculture Tetrazolium Assay, 48 hours). As to conditions: read-out: IC50 (nM) MTT RS4. In kind it is cell-based. The procedure: The cytotoxicity studies were carried out on the RS4;11 leukaemia tumour line.
The cells are distributed onto microplates and exposed to the test compounds for 48 hours.

In assay [2] the target is Bcl-2 protein (Homo sapiens (Human), UniProt P10415). The experiment in a line: Inhibition of Bcl-2 by the fluorescence polarisation technique. The class given is binding. Particulars: read-out: IC50 (nM) Bcl-2 FP. The procedure: The fluorescence polarisation tests were carried out on microplates (384 wells). […] After incubation for 2 hours, the fluorescence polarisation is measured.
In general terms: In fluorescence polarisation assays a small probe gives low polarisation when free and higher when bound to something large.

[3] abbreviates: Homo sapiens, RS4;11 cells, 48 hours exposure, MTT, concentration that inhibits cell viability by 50%.
[4] abbreviates: fluorescence polarisation test, concentration that inhibits fluorescence polarisation by 50%.
Setting [5] is: RS4;11 cells, 48 hours exposure, MTT, concentration that inhibits cell viability by 50%.

Structures are written as SMILES. Structures can show the parent of a compound that is named as a salt. Where two headings read alike, the source gives them in different places.

Chain of Bcl-2 protein (P10415 whole entry): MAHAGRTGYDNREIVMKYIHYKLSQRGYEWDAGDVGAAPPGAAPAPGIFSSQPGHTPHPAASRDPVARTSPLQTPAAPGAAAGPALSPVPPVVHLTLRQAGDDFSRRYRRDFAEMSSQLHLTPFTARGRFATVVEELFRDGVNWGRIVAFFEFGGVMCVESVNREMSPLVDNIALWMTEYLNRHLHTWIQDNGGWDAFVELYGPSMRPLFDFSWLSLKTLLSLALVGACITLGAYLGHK

As to `O=C(c1cc(-c2cc3c(cc2C(=O)N2Cc4ccccc4C[C@H]2CN2CCOCC2)OCO3)n2c1CCCC2)N(c1ccccc1)c1ccc(O)cc1` [Example 1, N-(4-Hydroxyphenyl)-3-{6-[((3S)-3-(4-morpholinylmethyl)-3,4-dihydro-2(1H)-isoquinolinyl)carbonyl]-1,3-benzdioxol-5-yl}-N-phenyl-5,6,7,8-tetrahydro-1-indolizine carboxamide hydrochloride], the IC50 – broadly, the concentration that gives 50% inhibition – in assay [1] (setting [3]) was 60.1 nM.
For `O=C(c1cc(-c2cc3c(cc2C(=O)N2Cc4ccccc4C[C@H]2CN2CCOCC2)OCO3)n2c1CCCC2)N(c1ccc(O)cc1)c1ccc(OC(F)(F)F)cc1` [Example 5, N-(4-Hydroxyphenyl)-3-{6-[((3S)-3-(4-morpholinylmethyl)-3,4-dihydro-2(1H)-isoquinolinyl)carbonyl]-1,3-benzodioxol-5-yl}-N-[4-(trifluoromethoxy)phenyl]-5,6,7,8-tetrahydro-1-indolizine carboxamide hydrochloride], the IC50 stood at 51 nM in assay [2] (setting [4]) and 98 nM in assay [1] (setting [3]).
On to `O=C(c1cc(-c2cc3c(cc2C(=O)N2Cc4ccccc4C[C@H]2CN2CCOCC2)OCO3)n2c1CCCC2)N(c1ccc(O)cc1)c1ccc(O)cc1` [Example 6, N,N-bis(4-Hydroxyphenyl)-3-{6-[((3S)-3-(4-morpholinylmethyl)-3,4-dihydro-2(1H)-isoquinolinyl)carbonyl]-1,3-benzodioxol-5-yl}-5,6,7,8-tetrahydro-1-indolizine carboxamide hydrochloride], for which the 50% inhibitory concentration (IC50) in assay [2] (setting [4]) worked out at 15 nM; in assay [1] (Homo sapiens, RS4-11, 48 h), 30 nM.
As to `Cn1ccc2cc(N(C(=O)c3cc(-c4cc5c(cc4C(=O)N4Cc6ccccc6C[C@H]4CN4CCOCC4)OCO5)n4c3CCCC4)c3ccc(O)cc3)ccc21` [Example 10, N-[4-(Hydroxy)phenyl]-N-(1-methyl-1H-indol-5-yl)-3-{6-[((3S)-3-(4-morpholinylmethyl)-3,4-dihydro-2(1H)-isoquinolinyl)carbonyl]-1,3-benzodioxol-5-yl}-5,6,7,8-tetrahydro-1-indolizine carboxamide hydrochloride], the half-maximal inhibitory concentration (IC50) in assay [1] (setting [3]) stood at 11 nM.
In the case of `CN1CCN(C[C@@H]2Cc3ccccc3CN2C(=O)c2cc3c(cc2-c2cc(C(=O)N(c4ccc(O)cc4)c4ccc5c(ccn5C)c4)c4n2CCCC4)OCO3)CC1` [Example 13, N-(4-Hydroxyphenyl)-N-(1-methyl-1H-indol-5-yl)-3-{6-[((3S)-3-[(4-methyl-1-piperazinyl)methyl]-3,4-dihydro-2(1H)-isoquinolinyl)carbonyl]-1,3-benzodioxol-5-yl}-5,6,7,8-tetrahydro-1-indolizine carboxamide bis(hydrochloride)], the concentration for half-maximal inhibition (IC50) in assay [2] (setting [4]) was 12 nM; in assay [1] (setting [3]), 8.63 nM.
The like results for `Cn1ccc2cc(N(C(=O)c3cc(-c4cc5c(cc4C(=O)N4Cc6ccccc6C[C@H]4CN4CCCOCC4)OCO5)n4c3CCCC4)c3ccc(O)cc3)ccc21` [Example 14, N-(4-Hydroxyphenyl)-N-(1-methyl-1H-indol-5-yl)-3-{6-[((3S)-3-(1,4-oxazepan-4-ylmethyl)-3,4-dihydro-2(1H)-isoquinolinyl)carbonyl]-1,3-benzodioxol-5-yl}-5,6,7,8-tetrahydro-1-indolizine carboxamide hydrochloride] were, in that order, 16 nM and 10.7 nM.
Consider `C[C@@H]1COCCN1C[C@@H]1Cc2ccccc2CN1C(=O)c1cc2c(cc1-c1cc(C(=O)N(c3ccc(O)cc3)c3ccc4c(ccn4C)c3)c3n1CCCC3)OCO2` [Example 15, N-(4-Hydroxyphenyl)-N-(1-methyl-1H-indol-5-yl)-3-{6-[((3S)-3-{[(3R)-3-methylmorpholinyl]methyl}-3,4-dihydro-2(1H)-isoquinolinyl)carbonyl]-1,3-benzodioxol-5-yl}-5,6,7,8-tetrahydro-1-indolizine carboxamide hydrochloride], for which the IC50 was 17 nM in assay [2] and 20.4 nM in assay [1] (setting [5]).
Regarding `C[C@H]1COCCN1C[C@@H]1Cc2ccccc2CN1C(=O)c1cc2c(cc1-c1cc(C(=O)N(c3ccc(O)cc3)c3ccc4c(ccn4C)c3)c3n1CCCC3)OCO2` [Example 16, N-(4-Hydroxyphenyl)-N-(1-methyl-1H-indol-5-yl)-3-{6-[((3S)-3-{[(3S)-3-methylmorpholinyl]methyl}-3,4-dihydro-2(1H)-isoquinolinyl)carbonyl]-1,3-benzodioxol-5-yl}-5,6,7,8-tetrahydro-1-indolizine carboxamide hydrochloride], the IC50 in assay [2] stood at 18 nM; in assay [1] (setting [5]), 23.4 nM.
Regarding `CCOc1ccc(C(=O)N2Cc3ccccc3C[C@H]2CN2CCOCC2)c(-c2cc(C(=O)N(c3ccc(O)cc3)c3ccc4c(ccn4C)c3)c3n2CCCC3)c1` [Example 36, 3-{5-Ethoxy-2-[((3S)-3-(4-morpholinylmethyl)-3,4-dihydro-2(1H)-isoquinolinyl)carbonyl]phenyl}-N-(4-hydroxyphenyl)-N-(1-methyl-H-indol-5-yl)-5,6,7,8-tetrahydro-1-indolizine carboxamide hydrochloride], in assay [1] (setting [5]), the IC50 was determined as 135 nM.
On to `Cl.[2H]C1([2H])Oc2cc(C(=O)N3Cc4ccccc4C[C@H]3CN3CCOCC3)c(-c3cc(C(=O)N(c4ccc(O)cc4)c4ccc5c(ccn5C)c4)c4n3CCCC4)cc2O1` [Example 37, N-(4-Hydroxyphenyl)-N-(1-methyl-1H-indol-5-yl)-3-{2,2-dideuterio-6-[((3S)-3-(4-morpholinylmethyl)-3,4-dihydro-2(1H)-isoquinolinyl)carbonyl]-1,3-benzodioxol-5-yl}-5,6,7,8-tetrahydro-1-indolizine carboxamide hydrochloride], for which, in assay [1] (setting [3]), the IC50 came to 11.6 nM.
The same measure, in the same setting: for `Cl.[2H]C1([2H])Oc2cc(C(=O)N3Cc4ccccc4C[C@H]3CN3CCOCC3)c(-c3cc(C(=O)N(c4ccccc4)c4ccc(O)cc4)c4n3CCCC4)cc2O1` [Example 38, N-(4-Hydroxyphenyl)-3-{2,2-dideuterio-6-[((3S)-3-(4-morpholinylmethyl)-3,4-dihydro-2(1H)-isoquinolinyl)carbonyl]-1,3-benzodioxol-5-yl}-N-phenyl-5,6,7,8-tetrahydro-1-indolizine carboxamide hydrochloride] the value was 61.8 nM.
For `Cn1ccc2cc(N(C(=O)c3cc(-c4cc5c(cc4C(=O)N4Cc6ccccc6C[C@H]4CN4CCOCC4)OCO5)n4c3CCCCC4)c3ccc(O)cc3)ccc21` [Example 84, hydrochloride], in assay [1] (setting [3]), the 50% inhibitory concentration (IC50) worked out at 20.6 nM.
Still for that read-out and setting: for `O=C(c1cc(-c2cc(Cl)ccc2C(=O)N2Cc3ccccc3C[C@H]2CN2CCOCC2)n2c1CCCC2)N(c1ccc(O)cc1)c1cncnc1` [Example 141, 3-(5-Chloro-2-{[(3S)-3-(morpholin-4-ylmethyl)-3,4-dihydroisoquinolin-2(1H)-yl]carbonyl}phenyl)-N-(4-hydroxyphenyl)-N-(pyrimidin-5-yl)-5,6,7,8-tetrahydroindolizine-1-carboxamide hydrochloride] the value was 72.5 nM; for `O=C(c1cc(-c2cc(Cl)ccc2C(=O)N2Cc3ccccc3C[C@H]2CN2CCOCC2)n2c1CCCC2)N(c1ccc(O)cc1)c1cccnc1` [Example 142, 3-(5-Chloro-2-{[(3S)-3-(morpholin-4-ylmethyl)-3,4-dihydroisoquinolin-2(1H)-yl]carbonyl}phenyl)-N-(4-hydroxyphenyl)-N-(pyridin-3-yl)-5,6,7,8-tetrahydroindolizine-1-carboxamide bis(hydrochloride)], 66.1 nM.
With `COc1c(F)cc(N(C(=O)c2cc(-c3cc(Cl)ccc3C(=O)N3Cc4ccccc4C[C@H]3CN3CCOCC3)n3c2CCCC3)c2ccc(O)cc2)cc1F` [Example 143, 3-(5-Chloro-2-{[(3S)-3-(morpholin-4-ylmethyl)-3,4-dihydroisoquinolin-2(1H)-yl]carbonyl}phenyl)-N-(3,5-difluoro-4-methoxyphenyl)-N-(4-hydroxyphenyl)-5,6,7,8-tetrahydroindolizine-1-carboxamide hydrochloride], in assay [1] (setting [3]), the half-maximal inhibitory concentration (IC50) stood at 43.8 nM.
Turning to `O=C(c1cc(-c2cc(Cl)ccc2C(=O)N2Cc3ccccc3C[C@H]2CN2CCOCC2)n2c1CCCC2)N(c1ccncc1)c1ccc(O)cc1` [Example 144, 3-(5-Chloro-2-{[(3S)-3-(morpholin-4-ylmethyl)-3,4-dihydroisoquinolin-2(1H)-yl]carbonyl}phenyl)-N-(4-hydroxyphenyl)-N-(pyridin-4-yl)-5,6,7,8-tetrahydroindolizine-1-carboxamide bis(hydrochloride)], in assay [1] (setting [3]), the IC50 stood at 59.9 nM.
Still for that read-out and setting: next, `COc1ccc(N(C(=O)c2cc(-c3cc(Cl)ccc3C(=O)N3Cc4ccccc4C[C@H]3CN3CCOCC3)n3c2CCCC3)c2ccc(O)cc2)cc1F` [Example 145, 3-(5-Chloro-2-{[(3S)-3-(morpholin-4-ylmethyl)-3,4-dihydroisoquinolin-2(1H)-yl]carbonyl}phenyl)-N-(3-fluoro-4-methoxyphenyl)-N-(4-hydroxyphenyl)-5,6,7,8-tetrahydroindolizine-1-carboxamide hydrochloride]: 28.9 nM; `COCCN(C)C[C@@H]1Cc2ccccc2CN1C(=O)c1cc2c(cc1-c1cc(C(=O)N(c3ccccc3)c3ccc(O)cc3)c3n1CCCC3)OCO2` [Example 146, N-(4-Hydroxyphenyl)-3-(6-{[(3S)-3-{[(2-methoxyethyl)(methyl)amino]-methyl}-3,4-dihydroisoquinolin-2(1H)-yl]carbonyl}-1,3-benzodioxol-5-yl)-N-phenyl-5,6,7,8-tetrahydroindolizine-1-carboxamide hydrochloride]: 153 nM; `O=C(c1cc(-c2cc3c(cc2C(=O)N2Cc4ccccc4C[C@H]2CN2CCS(=O)(=O)CC2)OCO3)n2c1CCCC2)N(c1ccccc1)c1ccc(O)cc1` [Example 147, 3-(6-{[(3S)-3-[(1,1-Dioxidothiomorpholin-4-yl)methyl]-3,4-dihydroisoquinolin-2(1H)-yl]carbonyl}-1,3-benzodioxol-5-yl)-N-(4-hydroxyphenyl)-N-phenyl-5,6,7,8-tetrahydroindolizine-1-carboxamide hydrochloride]: 74.2 nM.
